Measurements: patent publication US5387592A, “Substituted benzoxazole, benzthiazole, and benzimidazole derivatives as angiotensin II antagonists” (Imperial Chemical Industries PLC, priority 1991, dated 1995)
Structures can show the parent of a compound that is named as a salt.

Biological target: T1, AII receptors (Cavia porcellus, UniProt Q9WV26)
T1 construct: the source of cell surface membranes is the guinea pig adrenal gland; from tissue; host or cells: guinea pig adrenal gland, cell surface membrane fraction
T1 sequence (Q9WV26 1-359): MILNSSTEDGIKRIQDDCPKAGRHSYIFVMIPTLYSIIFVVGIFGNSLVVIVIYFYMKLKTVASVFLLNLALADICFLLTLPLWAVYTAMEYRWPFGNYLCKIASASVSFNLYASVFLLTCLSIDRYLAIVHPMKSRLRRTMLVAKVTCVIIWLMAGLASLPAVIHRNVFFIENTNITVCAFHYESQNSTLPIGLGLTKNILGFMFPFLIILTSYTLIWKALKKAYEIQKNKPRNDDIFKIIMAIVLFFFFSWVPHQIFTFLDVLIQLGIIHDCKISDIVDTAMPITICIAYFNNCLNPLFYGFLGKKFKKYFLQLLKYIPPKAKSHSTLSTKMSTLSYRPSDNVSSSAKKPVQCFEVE
Assay: Test A: displacement of radiolabelled AII binding from guinea pig adrenal gland membrane fraction
Conditions: guinea pig adrenal gland membranes; read-out: IC50 (concentration for 50% displacement of radiolabelled AII binding)
Method: This in vitro procedure involves the incubation of the test compound initially at a concentration of 100 micromolar (or less) in a buffered mixture containing fixed concentrations of radiolabelled AII and a cell surface membrane fraction prepared from a suitable angiotensin target tissue. In this test, the source of cell surface membranes is the guinea pig adrenal gland which is well known to respond to AII. Interaction of the radiolabelled AII with its receptors (assessed as radiolabel bound to the particulate membrane fraction following removal of unbound radiolabel by a rapid filtration procedure such as is standard in such studies) is antagonized by compounds which also bind to the membrane receptor sites and the degree of antagonism (observed in the test as displacement of membrane-bound radioactivity) is determined readily by comparing the receptor-bound radioactivity in the presence of the test compound at the specified test concentration with a control value determined in the absence of the test compound. Using this procedure compounds showing at least 50% displacement of radiolabelled AII binding at a concentration of 10^-4 M are retested at lower concentrations to determine their potency. […]

With `CCc1cc(OCc2ccc3oc(-c4ccccc4-c4nnn[nH]4)nc3c2)c2c(n1)CCCC2` [Example 3, 2-ethyl-5,6,7,8-tetrahydro-4-[(2-(2-(1H-tetrazol-5-yl)phenyl)benzoxazol-5-yl)methoxy]quinoline hydrochloride] the IC50 was 0.2 µM.
